Results on 31 compounds are retold here after PubChem BioAssay (NCI).

Molecules are shown by their SMILES.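 Assay format: 96-well plates, 48-hour exposure. The concentration for full growth arrest is given as TGI.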 Some results are limits rather than exact numbers.

The test system of the first test is HS 578T breast. As to the kind of experiment: growth of human tumour cells (NCI), 48 h.
In the case of `NC(C(F)(F)F)(C(F)(F)F)P(=O)(Cc1ccccc1)Cc1ccccc1`, the TGI was more than 100 µM.
On the same count and under the same terms, to `Cc1cc(N(CCC#N)CCC#N)ccc1/C=N/NC(=O)c1cc(Cl)ccc1O` belongs more than 100 µM.
The same measure, in the same setting: to `CC[C@]1(Cc2ccc(OC)c(OC)c2)CN(S(=O)(=O)c2ccc(C)cc2)C[C@@H]1OC(C)=O` belongs more than 100 µM.
Same read-out and setting: to `COc1ccccc1N/C(=C\C(=O)C(=O)NC12CC3CC(CC(C3)C1)C2)c1ccccc1` belongs more than 10 µM; to `O=C(CC(=O)n1nc(-c2ccccc2)c(N=Nc2ccccc2C(=O)O)c1-c1ccccc1)Nc1ccc(Cl)cc1`, more than 100 µM; to `CN1C(=O)N(c2ccccc2)C2(CCN(CC3COc4ccccc4O3)CC2)C1=O` (stereo not drawn), more than 100 µM.
`O=C(CN1c2ccccc2Sc2ccccc21)N1CCNCC1` gave a TGI of more than 100 µM.
Regarding `O=C(O)c1c2c(cc3c1CC1(Cc4ccccc4C1)C3)CCC2`, the TGI is more than 100 µM.
Compound `Cc1nc(-c2ccc([N+](=O)[O-])cc2)cn2c1nc1ccccc12` came in with a TGI of more than 100 µM.
The same measure, in the same setting: to `CN(C)CCCOC(=O)C(c1ccccc1)C1(O)CCSCC1` (stereo not drawn) belongs more than 100 µM; to `COc1cc(-c2cc(=O)c3cc4c(cc3[nH]2)OCO4)cc(OC)c1O`, more than 10 µM.
Still for that read-out and setting: to `C[C@@]12[C@H]3CC[C@@H]1[C@H](O)C(=O)N2CC3` belongs more than 100 µM; to `O=C1CCC[C@@H]2NC[C@@H](c3ccc4c(c3)OCO4)[C@H]12`, more than 25 µM.
Still for that read-out and setting: to `O=C(Nc1ccc(Br)cc1)c1c(-c2ccccc2)c2ccc(O)cc2oc1=O` belongs more than 10 µM.
In turn, `c1ccc2c(c1)OC(N1CCCC1)c1cnc(N3CCCC3)nc1-2` (stereo not drawn) had a TGI of 89.7 µM.
On the same count and under the same terms, to `CC(O[Si](c1ccccc1)(c1ccccc1)C(C)(C)C)[C@H](NC(=O)OC(C)(C)C)C(=O)O[Si](c1ccccc1)(c1ccccc1)C(C)(C)C` (stereo partly drawn) belongs 44.4 µM.
Still for that read-out and setting: to `CCCc1cc(=O)c2c(C)c3[nH]c4ccc(Cl)cc4c3c(C)c2[nH]1` belongs 32.7 µM; to `CCCCN1C(=O)CC2[C@@H]3CCc4cc(OC(C)=O)ccc4C3CC[C@]2(C)C1=O` (stereo partly drawn), more than 10 µM.

A further test deals with COLO 205 colon. As to the kind of experiment: growth of human tumour cells (NCI), 48 h.
Regarding `NC(C(F)(F)F)(C(F)(F)F)P(=O)(Cc1ccccc1)Cc1ccccc1`, the TGI was more than 100 µM.
Turning to `O=C(O)CSc1nnc(COc2ccc(Cl)cc2)n1-c1ccccc1`, the TGI was more than 100 µM.
The same measure, in the same setting: to `Cc1cc(N(CCC#N)CCC#N)ccc1/C=N/NC(=O)c1cc(Cl)ccc1O` belongs more than 100 µM; to `CC[C@]1(Cc2ccc(OC)c(OC)c2)CN(S(=O)(=O)c2ccc(C)cc2)C[C@@H]1OC(C)=O`, more than 100 µM.
The same measure, in the same setting: to `COc1ccccc1N/C(=C\C(=O)C(=O)NC12CC3CC(CC(C3)C1)C2)c1ccccc1` belongs more than 10 µM.
The same measure, in the same setting: to `CC(C)(C)c1ccc2c(c1)CNCCNCc1cc(C(C)(C)C)ccc1OCC1(CO2)COc2ccc(C(C)(C)C)cc2CNCCNCc2cc(C(C)(C)C)ccc2OC1` belongs 2.29 µM; to `O=C(CCCCCCCCC(=O)NN1C(=O)/C(=C\c2ccc(O)c(O)c2)SC1c1ccc(Cl)cc1)NN1C(=O)/C(=C\c2ccc(O)c(O)c2)SC1c1ccc(Cl)cc1` (stereo not drawn), more than 100 µM.
On to `CC(C)Sc1nc(C#N)cc2c1CCCC2`, for which the TGI is 50.1 µM.
For `O=C(CC(=O)n1nc(-c2ccccc2)c(N=Nc2ccccc2C(=O)O)c1-c1ccccc1)Nc1ccc(Cl)cc1`, the TGI is more than 100 µM.
The same measure, in the same setting: to `CN1C(=O)N(c2ccccc2)C2(CCN(CC3COc4ccccc4O3)CC2)C1=O` (stereo not drawn) belongs more than 100 µM.
The same measure, in the same setting: to `CCOC(=O)C1Cc2[nH]c3ccccc3c2C(C)C1C` (stereo not drawn) belongs 32.6 µM; to `O=C(CN1c2ccccc2Sc2ccccc21)N1CCNCC1`, more than 100 µM; to `O=C(O)c1c2c(cc3c1CC1(Cc4ccccc4C1)C3)CCC2`, more than 100 µM.
On the same count and under the same terms, to `Cc1nc(-c2ccc([N+](=O)[O-])cc2)cn2c1nc1ccccc12` belongs more than 100 µM.
`CN(C)CCCOC(=O)C(c1ccccc1)C1(O)CCSCC1` (stereo not drawn): the TGI is more than 100 µM.
Same read-out and setting: to `COc1cc(-c2cc(=O)c3cc4c(cc3[nH]2)OCO4)cc(OC)c1O` belongs more than 10 µM; to `C[C@@]12[C@H]3CC[C@@H]1[C@H](O)C(=O)N2CC3`, more than 100 µM.
The compound `Cn1cc2ccccc2c1-c1nc(N)nc(F)n1` registered a TGI of more than 100 µM.
On the same count and under the same terms, to `O=C1CCC[C@@H]2NC[C@@H](c3ccc4c(c3)OCO4)[C@H]12` belongs more than 25 µM; to `O=C(Nc1ccc(Br)cc1)c1c(-c2ccccc2)c2ccc(O)cc2oc1=O`, more than 10 µM.
Same read-out and setting: to `c1ccc2c(c1)OC(N1CCCC1)c1cnc(N3CCCC3)nc1-2` (stereo not drawn) belongs more than 100 µM.
Same read-out and setting: to `CC1=C(O)C(=O)[C@@H]2O[C@@H]2C1=O` belongs 16 µM.
For `CC(O[Si](c1ccccc1)(c1ccccc1)C(C)(C)C)[C@H](NC(=O)OC(C)(C)C)C(=O)O[Si](c1ccccc1)(c1ccccc1)C(C)(C)C` (stereo partly drawn), the TGI was 31.3 µM.
On the same count and under the same terms, to `Cc1ccc(-c2c(C#N)c(-c3ccccc3)n(NS(=O)(=O)c3ccccc3)c(=O)c2C#N)cc1` belongs more than 100 µM; to `COc1ccc(C(C#N)NNC(=O)c2ccccc2O)cc1OC` (stereo not drawn), more than 100 µM.
In turn, `O=c1[nH]n2c(=O)cc[nH]c2c1-c1nnns1` returned a TGI of more than 100 µM.
On the same count and under the same terms, to `CCCc1cc(=O)c2c(C)c3[nH]c4ccc(Cl)cc4c3c(C)c2[nH]1` belongs 3.89 µM.
With `CC(CN1c2ccccc2Sc2ccccc21)N(C)C` (stereo not drawn), the TGI was 29.2 µM.
The same measure, in the same setting: to `N.N.N.O=[N+]([O-])[O-].O=[N+]([O-])[O-].O=[N+]([O-])[O-].O=[N+]([O-])[O-].[Co+3]` belongs more than 100 µM.
Same read-out and setting: to `Cc1nnc(Nc2ccccc2)o1` belongs more than 100 µM; to `CCCCN1C(=O)CC2[C@@H]3CCc4cc(OC(C)=O)ccc4C3CC[C@]2(C)C1=O` (stereo partly drawn), more than 10 µM.

Another test concerns NCI-H522 lung. Put plainly: growth of human tumour cells (NCI), 48 h.
Regarding `O=C(O)CSc1nnc(COc2ccc(Cl)cc2)n1-c1ccccc1`, the TGI is more than 100 µM.
On the same count and under the same terms, to `Cc1cc(N(CCC#N)CCC#N)ccc1/C=N/NC(=O)c1cc(Cl)ccc1O` belongs more than 100 µM; to `COc1ccccc1N/C(=C\C(=O)C(=O)NC12CC3CC(CC(C3)C1)C2)c1ccccc1`, more than 10 µM; to `CC(C)(C)c1ccc2c(c1)CNCCNCc1cc(C(C)(C)C)ccc1OCC1(CO2)COc2ccc(C(C)(C)C)cc2CNCCNCc2cc(C(C)(C)C)ccc2OC1`, 0.421 µM.
Still for that read-out and setting: to `O=C(CCCCCCCCC(=O)NN1C(=O)/C(=C\c2ccc(O)c(O)c2)SC1c1ccc(Cl)cc1)NN1C(=O)/C(=C\c2ccc(O)c(O)c2)SC1c1ccc(Cl)cc1` (stereo not drawn) belongs 32.5 µM; to `CC(C)Sc1nc(C#N)cc2c1CCCC2`, 78.4 µM; to `CN1C(=O)N(c2ccccc2)C2(CCN(CC3COc4ccccc4O3)CC2)C1=O` (stereo not drawn), more than 100 µM.
On the same count and under the same terms, to `CCOC(=O)C1Cc2[nH]c3ccccc3c2C(C)C1C` (stereo not drawn) belongs 26.6 µM.
`O=C(O)c1c2c(cc3c1CC1(Cc4ccccc4C1)C3)CCC2` had a TGI of more than 100 µM.
`CN(C)CCCOC(=O)C(c1ccccc1)C1(O)CCSCC1` (stereo not drawn) showed a TGI of more than 100 µM.
`COc1cc(-c2cc(=O)c3cc4c(cc3[nH]2)OCO4)cc(OC)c1O`: the TGI is more than 10 µM.
On the same count and under the same terms, to `C[C@@]12[C@H]3CC[C@@H]1[C@H](O)C(=O)N2CC3` belongs more than 100 µM.
Same read-out and setting: to `Cn1cc2ccccc2c1-c1nc(N)nc(F)n1` belongs more than 100 µM; to `O=C1CCC[C@@H]2NC[C@@H](c3ccc4c(c3)OCO4)[C@H]12`, more than 25 µM.
